# Test results taken from patent US20250296971A1, “GASTRIC INHIBITORY PEPTIDE RECEPTOR LIGANDS” (priority 2021, published 2025).
# Read-outs that look alike come from different tables or passages of the source. *1 amine or outer side, *2 acyl side, *3 side chain or, on linkers, in order; H or OH if unused. Where a SMILES comes first, the peptide text is derived from it. Bridges are numbered along the chain shown (N, C = ends). [ ]: non-standard residue; d: D form. The star is where a group is joined. X14 = NC(=O)[C@H](CCCCNC(=O)CN1CCN2CCN3CCN(CC1)CC(=O)[O][In]([O]C(=O)C2)[O]C(=O)C3)NC(=O)CCC(=O)NCCCOCCOCCOCCCN*; X5 = NC(=O)[C@H](CCCCNC(=O)CN1CCN(CC(=O)O)CCN(CC(=O)O)CCN(CC(=O)O)CC1)NC(=O)CCC(=O)NCCCOCCOCCOCCCN*; NH(1-deoxy-D-glucityl) = OC[C@@H](O)[C@@H](O)[C@H](O)[C@@H](O)CN*; DOTA = O=C(O)CN1CCN(CC(=O)O)CCN(CC(=O)*)CCN(CC(=O)O)CC1; Trp(5-Br) = N[C@@H](Cc1c[nH]c2ccc(Br)cc12)C(=O)O; Trp(5-Cl) = N[C@@H](Cc1c[nH]c2ccc(Cl)cc12)C(=O)O; Pyridine(2,6-diCH2) = c1cc(C[*:1])nc(C[*:2])c1; Pro(4R-NH2) = N[C@H]1CN[C@H](C(=O)O)C1; 1Nal = N[C@@H](Cc1cccc2ccccc12)C(=O)O; mXylylene = c1cc(C[*:1])cc(C[*:2])c1; Glutaryl = O=C(CCCC(=O)[*:2])[*:1]; Hyp = O=C(O)[C@@H]1C[C@@H](O)CN1; X1 = O=C(CN1CCC(N[*:1])CC1)[*:2]; hSer = N[C@@H](CCO)C(=O)O; Api = NC1(C(=O)O)CCNCC1; Thp = NC1(C(=O)O)CCOCC1; Aib = CC(C)(N)C(=O)O
# Biological target: T1, GIPR (CHO-K1-hGIPR cells) (Homo sapiens, UniProt P48546)
# T1 construct: host or cells: CHO-K1
# T1 sequence (P48546 22-466): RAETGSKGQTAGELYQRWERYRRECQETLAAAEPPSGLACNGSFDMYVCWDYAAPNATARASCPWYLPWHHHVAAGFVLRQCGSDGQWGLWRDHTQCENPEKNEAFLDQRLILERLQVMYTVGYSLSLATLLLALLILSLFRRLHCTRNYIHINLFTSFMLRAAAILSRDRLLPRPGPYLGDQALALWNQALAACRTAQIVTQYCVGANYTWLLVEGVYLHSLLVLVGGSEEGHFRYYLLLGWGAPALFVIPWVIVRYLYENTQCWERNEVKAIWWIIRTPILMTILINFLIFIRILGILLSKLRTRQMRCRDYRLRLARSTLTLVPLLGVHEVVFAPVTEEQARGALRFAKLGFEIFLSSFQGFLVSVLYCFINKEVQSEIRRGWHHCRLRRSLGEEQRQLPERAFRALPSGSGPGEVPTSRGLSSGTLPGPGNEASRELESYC
# Assay: FACS binding assay
# Details: read-out: pIC50 Category (converted)
# Summary of the method: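 Median fluorescence in the APC channel, measured on washed CHO-K1 cells overexpressing human GIPR, was fitted by four-parameter logistic regression against peptide concentration to yield EC50 or IC50 values. Secondary labelling used APC-streptavidin (1 μg/mL, 30 min, ice).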
# [1] = competition with 20 nM GIP-057, 4° C., 1 hour
# [2] = competition with 20 nM GIP-057, 4° C. for 1 hour
IC50 [1] [nM],IC50 [2] [nM],Structure (SMILES)
–,10 to 79.4,"CC[C@H](C)[C@@H]1NC(=O)[C@H](CC(C)C)NC(=O)C2(CCOCC2)NC(=O)[C@@H](NC(=O)[C@@H](CC(C)C)NC(=O)[C@H](Cc2c[nH]c3ccccc23)NC(=O)[C@@H]2C[C@@H](O)CN2C(=O)[C@H](Cc2c[nH]c3ccc(Cl)cc23)NC(=O)[C@H](Cc2c[nH]c3ccccc23)NC(=O)[C@H](CC(=O)O)NC(C)=O)CSCc2cccc(n2)CSC[C@@H](C(N)=O)NC1=O [GIP-397, Ac-Asp-Trp-5Clw-Hyp-Trp-leu-[Cys(2Lut)-Thp-Leu-Ile-Cys]-NH2] (Ac-DW[Trp(5-Cl)][Hyp]W[dL]C[Thp]LIC-NH2; linker 7-11 via Pyridine(2,6-diCH2))"
< 10,–,"CC[C@H](C)[C@@H]1NC(=O)[C@H](CC(C)C)NC(=O)C2(CCOCC2)NC(=O)[C@@H](NC(=O)[C@@H](NC(=O)[C@H](CCC(=O)O)NC(=O)[C@@H]2C[C@@H](O)CN2C(=O)[C@H](Cc2c[nH]c3ccc(Cl)cc23)NC(=O)[C@H](Cc2c[nH]c3ccccc23)NC(=O)[C@H](CC(=O)O)NC(C)=O)C(C)C)CSCc2cccc(n2)CSC[C@@H](C(N)=O)NC1=O [GIP-219, Ac-Asp-Trp-5Clw-Hyp-Glu-Val-[Cys(2Lut)-Thp-Leu-Ile-Cys]-NH2] (Ac-DW[Trp(5-Cl)][Hyp]EVC[Thp]LIC-NH2; linker 7-11 via Pyridine(2,6-diCH2))"

# Further lines, the compound ahead of its results:
Structure (SMILES),IC50 [1] [nM],IC50 [2] [nM]
"CC[C@H](C)[C@@H]1NC(=O)[C@H](CC(C)C)NC(=O)C(C)(C)NC(=O)[C@@H](NC(=O)[C@@H](CC(C)C)NC(=O)[C@H](CCC(=O)O)NC(=O)[C@@H]2CCCN2C(=O)[C@H](Cc2c[nH]c3ccc(Cl)cc23)NC(=O)[C@H](Cc2c[nH]c3ccccc23)NC(=O)[C@H](CC(=O)O)NC(C)=O)CSCc2cccc(c2)CSC[C@@H](C(=O)NCCCOCCOCCOCCCNC(=O)CCC(=O)N[C@@H](CCCCNC(=O)CN2CCN3CCN4CCN(CC2)CC(=O)[O][In]([O]C(=O)C3)[O]C(=O)C4)C(N)=O)NC1=O [GIP-164, Ac-Asp-Trp-5Clw-Pro-Glu-leu-[Cys(3MeBn)-Aib-Leu-Ile-Cys]-Ttds-Lys(InDOTA)-NH2] (Ac-DW[Trp(5-Cl)]PE[dL]C[Aib]LIC-X14; linker 7-11 via mXylylene)",< 10,–
"CC[C@H](C)[C@@H]1NC(=O)[C@H](CC(C)C)NC(=O)C2(CCN(C(=O)CN3CCN(CC(=O)O)CCN(CC(=O)O)CCN(CC(=O)O)CC3)CC2)NC(=O)[C@@H](NC(=O)[C@@H](CC(C)C)NC(=O)[C@H](CCC(=O)O)NC(=O)[C@@H]2C[C@@H](N)CN2C(=O)[C@H](Cc2c[nH]c3ccc(Br)cc23)NC(=O)[C@H](Cc2c[nH]c3ccccc23)NC(=O)[C@H](CCO)NC(=O)CCCC(=O)NC[C@H](O)[C@@H](O)[C@H](O)[C@H](O)CO)CSCc2cccc(n2)CSC[C@@H](C(=O)NC2CCN(CC(=O)N[C@H](CCC(=O)NC[C@H](O)[C@@H](O)[C@H](O)[C@H](O)CO)C(N)=O)CC2)NC1=O [GIP-016, AGLU-Glutar-Hse-Trp-5Brw-Tap-Glu-leu-[Cys(2Lut)-Apc(DOTA)-Leu-Ile-Cys]-APAc-glu(AGLU)-NH2] ({NH(1-deoxy-D-glucityl)-Glutaryl}-[hSer]W[Trp(5-Br)][Pro(4R-NH2)]E[dL]C[Api](DOTA)LIC[X1][dE](NH(1-deoxy-D-glucityl))-NH2; linker 7-11 via Pyridine(2,6-diCH2))",< 10,–
"CC[C@H](C)[C@@H]1NC(=O)[C@H](CC(C)C)NC(=O)C(C)(C)NC(=O)[C@@H](NC(=O)[C@H](CC(C)C)NC(=O)[C@H](CCC(=O)O)NC(=O)[C@@H]2CCCN2C(=O)[C@H](Cc2cccc3ccccc23)NC(C)=O)CSCc2cccc(c2)CSC[C@@H](C(=O)NCCCOCCOCCOCCCNC(=O)CCC(=O)N[C@@H](CCCCNC(=O)CN2CCN(CC(=O)O)CCN(CC(=O)O)CCN(CC(=O)O)CC2)C(N)=O)NC1=O [GIP-298, Ac-1Ni-Pro-Glu-Leu-[Cys(3MeBn)-Aib-Leu-Ile-Cys]-Ttds-Lys(DOTA)-NH2] (Ac-[1Nal]PELC[Aib]LIC-X5; linker 5-9 via mXylylene)",–,> 1000
